According to patent US10793563B2, “GCN2 inhibitors and uses thereof” (Merck Patent GmbH, priority 2018, dated 2020):
Read-outs that look alike come from different tables or passages of the source.

Key:
GCN2 kinase = GCN2 kinase (Homo sapiens (Human), UniProt Q9P2K8); test: GCN2 Enzyme Inhibition Assay (Transcreener ADP2 fluorescence polarization); assay type: biochemical; settings: 280 μM ATP, 200 μM (RS)7 peptide, 4 nM GCN2, 25° C.
How it was run: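 Transcreener ADP2 fluorescence polarization detection of ADP from 4 nM GCN2 with (RS)7 substrate in 25 mM Tris-HCl pH 7.5, 50 mM NaCl, 10 mM MgCl2, 1 mM DTT. Compound pre-incubated with enzyme 10 min at 25 °C; reaction started by ATP, run 1 h at 25 °C. IC50 and Ki(app) by tight-binding fit.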

[1] = biological target: intracellular GCN2 (phosphorylation of the GCN2 substrate eIF2α) (Homo sapiens (Human), UniProt Q9P2K8); test: GCN2 Cellular Inhibition Assay (AlphaScreen SureFire P-eIF2α Ser51, borrelidin-treated U2OS cells); assay type: cell-based; settings: 10 μM borrelidin, 1 h, phosphorylated eIF2α Ser51, read-out: GCN2 Biomarker (IC50)
intracellular GCN2 (phosphorylation of the GCN2 substrate eIF2α), sequence (Q9P2K8 whole entry): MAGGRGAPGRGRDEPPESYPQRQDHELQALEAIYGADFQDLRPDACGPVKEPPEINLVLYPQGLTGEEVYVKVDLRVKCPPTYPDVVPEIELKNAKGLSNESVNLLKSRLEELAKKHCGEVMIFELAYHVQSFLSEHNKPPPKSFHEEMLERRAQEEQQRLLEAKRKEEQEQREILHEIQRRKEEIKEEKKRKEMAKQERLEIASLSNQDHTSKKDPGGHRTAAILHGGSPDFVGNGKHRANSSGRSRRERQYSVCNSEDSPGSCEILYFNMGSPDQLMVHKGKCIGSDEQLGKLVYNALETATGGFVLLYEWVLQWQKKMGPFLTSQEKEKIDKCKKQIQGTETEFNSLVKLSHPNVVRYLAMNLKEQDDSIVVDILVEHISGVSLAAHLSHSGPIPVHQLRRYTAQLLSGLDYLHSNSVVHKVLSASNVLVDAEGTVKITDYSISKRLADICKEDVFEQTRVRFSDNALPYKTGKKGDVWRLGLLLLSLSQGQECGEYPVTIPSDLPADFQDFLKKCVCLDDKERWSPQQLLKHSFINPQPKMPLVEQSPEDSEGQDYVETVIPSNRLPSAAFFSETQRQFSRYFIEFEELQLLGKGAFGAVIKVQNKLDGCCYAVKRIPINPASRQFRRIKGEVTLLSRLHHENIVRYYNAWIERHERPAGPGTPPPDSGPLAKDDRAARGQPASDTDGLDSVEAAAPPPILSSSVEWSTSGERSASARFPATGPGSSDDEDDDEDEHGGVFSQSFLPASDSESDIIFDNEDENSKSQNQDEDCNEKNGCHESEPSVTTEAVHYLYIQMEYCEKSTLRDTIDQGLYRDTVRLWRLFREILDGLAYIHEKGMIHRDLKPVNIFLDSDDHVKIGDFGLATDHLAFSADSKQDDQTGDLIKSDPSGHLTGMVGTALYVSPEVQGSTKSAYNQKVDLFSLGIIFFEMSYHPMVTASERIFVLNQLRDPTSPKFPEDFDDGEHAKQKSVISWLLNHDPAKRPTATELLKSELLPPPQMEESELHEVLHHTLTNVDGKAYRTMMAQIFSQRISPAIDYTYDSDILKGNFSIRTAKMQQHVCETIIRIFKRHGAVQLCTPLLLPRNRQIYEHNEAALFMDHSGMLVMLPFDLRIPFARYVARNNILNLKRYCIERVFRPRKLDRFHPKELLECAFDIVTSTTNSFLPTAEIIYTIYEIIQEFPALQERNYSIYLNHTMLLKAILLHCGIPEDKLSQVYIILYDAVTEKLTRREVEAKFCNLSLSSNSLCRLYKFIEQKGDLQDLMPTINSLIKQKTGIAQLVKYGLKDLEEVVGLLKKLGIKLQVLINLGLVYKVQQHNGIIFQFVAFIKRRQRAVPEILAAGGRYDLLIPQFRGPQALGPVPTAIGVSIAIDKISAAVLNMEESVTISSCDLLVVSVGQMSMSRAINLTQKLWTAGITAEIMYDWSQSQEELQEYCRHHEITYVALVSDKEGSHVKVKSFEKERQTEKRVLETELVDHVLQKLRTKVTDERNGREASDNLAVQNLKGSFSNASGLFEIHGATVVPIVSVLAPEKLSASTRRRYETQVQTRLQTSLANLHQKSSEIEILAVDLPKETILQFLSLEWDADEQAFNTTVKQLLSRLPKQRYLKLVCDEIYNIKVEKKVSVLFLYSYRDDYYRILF
How it was run: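 U2OS cells adhered overnight, then given compound (top 40 μM, 4-fold serial dilutions) plus 10 μM borrelidin for 1 h at 37 °C. Lysates assayed for eIF2α phospho-Ser51 by AlphaScreen SureFire; % inhibition versus borrelidin-only wells.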

[2] = system: primary human pan T-cells; test: Human IL-2 Assay for GCN2 Inhibition (IL-2 secretion from T cells in low amino acid condition); assay type: cell-based; settings: IL-2 secretion from human T cells stimulated with anti-CD3/CD28 in low amino acid condition, ELISA; for EC50: read-out: IL2/T-cell EC50
Text: Tumor microenvironment is profoundly immuno-suppressive. This may be attributed to the depletion of amino acids (like arginine and tryptophan) which triggers the activation of GCN2 in immune cells, including T cell and myeloid cells. In T cells, activation of GCN2 leads to reduce effector functions of CD8 T cells and induction and/or maintenance of immuno-suppressive T-regs. Inhibition of that immuno-suppressive response by GCN2 inhibitors enables an anti-cancer immune response by activating effector T-cells. Herein we describe an in-vitro system we established using human T-cells stimulated in low amino acid condition in order to engage the GCN2 biology. The method described involves the modulation of IL-2 levels secreted by human T cells in responses to the GCN2 inhibitors disclosed herein.
Amino acid-free RPMI was reconstituted with all but one of the amino acids found in standard RMPI (e.g. Arginine, Tryptophan), 10% charcoal-stripped fetal bovine serum, 100 Units/mL penicillin and 0.1 mg/mL streptomycin. Primary human pan T-cells were isolated using Pan T Cell Isolation Kit, human (MACS Miltenyi biotech Cat # Order no. 130-096-535) from apheresis cones and 5×104 pan T-cells per well. The purified T cells are seeded in Nunc™ 96-Well Polystyrene Round Bottom Microwell Plates (the cells are rested in No TRP media in a 15 ml falcon tube in the incubator for 30-45 minutes while titrations for tryptophan and the GCN2 inhibitor compound are made) A plate matrix was developed to titrate both a GCN2 inhibitor and the amino acid of interest ranging from “No Amino Acid” condition, up to the concentration found in the regular RPMI media (20 μM for TRP and 950 μM for Arginine). The cells were incubated for 30 min at 37° C. with the GCN2 inhibitor and then stimulated with 5×104 anti-CD3/CD28 Dynabeads® per well. After 96 hours of incubation the IL-2 level in the supernatant were measured using ELISA (R&D systems Cat # DY202 (Human IL-2 DuoSet ELISA). Data were plotted in GraphPad Prism software and EC50 is calculated.

GCN2 kinase, sequence (Q9P2K8 whole entry): as above

| IC50 (GCN2 kinase) | IC50 [1] | EC50 ([2]; Homo sapiens, T-cell, 96 h) | Ki (GCN2 kinase; Ki(app)) | IL2/T-cell EC50 ([2]; 96 hours) | EC50 ([2]; 96 hours) | SMILES |
| --- | --- | --- | --- | --- | --- | --- |
| < 10 nM | < 500 nM | 100 to 500 nM | – | – | – | Cc1n[nH]cc1[C@@H]1CN(c2ccnc(-c3cnc4cc(Cl)c(C(F)(F)F)cn34)n2)C[C@H](C)O1 [I-359, (2S,6R)-4-(2-(7-chloro-6-(trifluoromethyl)imidazo[1,2-a]pyridin-3-yl)pyrimidin-4-yl)-2-methyl-6-(3-methyl-1H-pyrazol-4-yl)morpholine] |
| < 10 nM | < 500 nM | < 100 nM | – | – | – | C[C@H]1[C@@H](c2cn[nH]c2)N(CC2(C)COC2)CCN1c1ccnc(-c2cnc3ccc(C(F)(F)F)cn23)n1 [I-481, 3-(4-((2 S,3R)-2-methyl-4-((3-methyloxetan-3-yl)methyl)-3-(1H-pyrazol-4-yl)piperazin-1-yl)pyrimidin-2-yl)-6-(trifluoromethyl)imidazo[1,2-a]pyridine] |
| 10 to 100 nM | < 500 nM | 100 to 500 nM | – | – | – | Cc1cc(-c2cnc3ccc(Cl)cn23)nc(N2C[C@H](C)C[C@H](c3cn[nH]c3)C2)n1 [I-209, 6-chloro-3-(6-methyl-2-((3R,5R)-3-methyl-5-(1H-pyrazol-4-yl)piperidin-1-yl)pyrimidin-4-yl)imidazo[1,2-a]pyridine] |
| < 10 nM | < 500 nM | 100 to 500 nM | – | – | – | C[C@@H]1CN(c2nccc(-c3cnc4ccc(Cl)cn34)n2)C[C@H](c2cn[nH]c2)O1 [I-248, 6-Chloro-3-{2-[(2R,6S)-2-methyl-6-(1H-pyrazol-4-yl)-morpholin-4-yl]-pyrimidin-4-yl}-imidazo[1,2-a]pyridine] |
| < 10 nM | < 500 nM | 100 to 500 nM | – | – | – | C[C@@H]1C[C@H](c2cn[nH]c2)CN(c2nccc(-c3cnc4ccc(C5CC5)cn34)n2)C1 [I-249, 6-Cyclopropyl-3-{2-[(3R,5R)-3-methyl-5-(1H-pyrazol-4-yl)-piperidin-1-yl]-pyrimidin-4-yl}-imidazo[1,2-a]pyridine] |
| < 10 nM | < 500 nM | < 100 nM | < 10 nM | – | – | NC(=O)[C@H]1CCCN(c2ccnc(-c3cnc4ccc(C(F)(F)F)cn34)n2)C1 [I-154, (S)-1-[2-(6-Trifluoromethyl-imidazo[1,2-a]pyridin-3-yl)-pyrimidin-4-yl]-piperidine-3-carboxylic acid amide] |
| < 10 nM | < 500 nM | 100 to 500 nM | – | – | – | NC(=O)[C@@H]1CCCN(c2ncc(F)c(-c3cnc4ccc(C(F)(F)F)cn34)n2)C1 [I-223, (R)-1-(5-fluoro-4-(6-(trifluoromethyl)imidazo[1,2-a]pyridin-3-yl)pyrimidin-2-yl)piperidine-3-carboxamide] |
| < 10 nM | < 500 nM | > 500 nM | – | – | – | CS(=O)(=O)C1CC(N2CCN(c3ccnc(-c4cnc5ccc(C(F)(F)F)cn45)n3)C[C@@H]2c2cn[nH]c2)C1 (stereo partly drawn) [I-495, 3-{4-[(S)-4-(3-Methanesulfonyl-cyclobutyl)-3-(1H-pyrazol-4-yl)-piperazin-1-yl]-pyrimidin-2-yl}-6-trifluoromethyl-imidazo[1,2-a]pyridine] |
| 10 to 100 nM | < 500 nM | – | – | − (“−” for not active) | – | Cc1cnc(N2C[C@H](C)C[C@H](c3cn[nH]c3)C2)nc1-c1cnc2ccc(Cl)cn12 [I-185, 6-chloro-3-(5-methyl-2-((3R,5R)-3-methyl-5-(1H-pyrazol-4-yl)piperidin-1-yl)pyrimidin-4-yl)imidazo[1,2-a]pyridine] |
| < 10 nM | < 500 nM | < 100 nM | – | – | – | C[C@@H]1CN(c2nccc(-c3cnc4ccc(C(F)(F)F)cn34)n2)C[C@H](c2cn[nH]c2)O1 [I-127, 3-{2-[(2R,6S)-2-Methyl-6-(1H-pyrazol-4-yl)-morpholin-4-yl]-pyrimidin-4-yl}-6-trifluoromethyl-imidazo[1,2-a]pyridine] |
| < 10 nM | < 500 nM | 100 to 500 nM | – | – | – | FC(F)(F)c1ccc2ncc(-c3nccc(N4CCN(C5CC6(COC6)C5)[C@H](c5cn[nH]c5)C4)n3)n2c1 [I-504, (R)-3-(4-(3-(1H-pyrazol-4-yl)-4-(2-oxaspiro[3.3]heptan-6-yl)piperazin-1-yl)pyrimidin-2-yl)-6-(trifluoromethyl)imidazo[1,2-a]pyridine] |
| < 10 nM | < 500 nM | 100 to 500 nM | – | – | – | Cc1[nH]ncc1[C@H]1C[C@@H](O)CN(c2ccnc(-c3cnc4ccc(C(F)(F)F)cn34)n2)C1 [I-315, (3R,5R)-5-(3-Methyl-1H-pyrazol-4-yl)-1-[2-(6-trifluoromethyl-imidazo[1,2-a]pyridin-3-yl)-pyrimidin-4-yl]-piperidin-3-ol] |
| < 10 nM | < 500 nM | 100 to 500 nM | – | – | – | CC1CC1CN1CCN(c2ccnc(-c3cnc4ccc(C(F)(F)F)cn34)n2)CC1c1cn[nH]c1 (centres unmarked) [I-473, 3-(4-(4-((2-methylcyclopropyl)methyl)-3-(1H-pyrazol-4-yl)piperazin-1-yl)pyrimidin-2-yl)-6-(trifluoromethyl)imidazo[1,2-a]pyridine] |
| < 10 nM | < 500 nM | < 100 nM | – | – | – | C[C@H]1CN(c2ccnc(-c3cnc4ccc(Cl)cn34)n2)C[C@@H](c2cn[nH]c2F)O1 [I-176, (2R,6S)-4-(2-(6-chloroimidazo[1,2-a]pyridin-3-yl)pyrimidin-4-yl)-2-(5-fluoro-1H-pyrazol-4-yl)-6-methylmorpholine] |
| < 10 nM | < 500 nM | – | – | − (“−” for not active) | – | Cc1[nH]ncc1[C@@H]1C[C@H](O)CN(c2ccnc(-c3cnc4ccc(C(F)(F)F)cn34)n2)C1 [I-314, (3 S,5S)-5-(3-Methyl-1H-pyrazol-4-yl)-1-[2-(6-trifluoromethyl-imidazo[1,2-a]pyridin-3-yl)-pyrimidin-4-yl]-piperidin-3-ol] |
| < 10 nM | < 500 nM | 100 to 500 nM | – | – | < 100 nM | Cc1[nH]ncc1[C@@H]1CN(c2ccnc(-c3cnc4ccc(C(F)(F)F)cn34)n2)C[C@H](C)O1 [I-124, 3-{4-[(2S,6R)-2-Methyl-6-(3-methyl-1H-pyrazol-4-yl)-morpholin-4-yl]-pyrimidin-2-yl}-6-trifluoromethyl-imidazo[1,2-a]pyridine] |
| < 10 nM | < 500 nM | < 100 nM | – | – | – | C[C@H]1CN(c2nccc(-c3cnc4ccc(Cl)cn34)n2)C[C@@H](c2cn[nH]c2)O1 [I-247, 6-Chloro-3-{2-[(2S,6R)-2-methyl-6-(1H-pyrazol-4-yl)-morpholin-4-yl]-pyrimidin-4-yl}-imidazo[1,2-a]pyridine] |
| < 10 nM | < 500 nM | 100 to 500 nM | – | – | – | C[C@@H]1CN(c2nccc(-c3cnc4ccc(C(F)(F)F)cn34)n2)C[C@@H](c2cn[nH]c2)O1 [I-135, (2R,6R)-2-methyl-6-(1H-pyrazol-4-yl)-4-(4-(6-(trifluoromethyl)imidazo[1,2-a]pyridin-3-yl)pyrimidin-2-yl)morpholine] |
| < 10 nM | < 500 nM | 100 to 500 nM | – | – | – | Cc1[nH]ncc1[C@@H]1CN(c2nccc(-c3cnc4ccc(Cl)cn34)n2)C[C@H](C)O1 [I-179, (2S,6R)-4-(4-(6-chloroimidazo[1,2-a]pyridin-3-yl)pyrimidin-2-yl)-2-methyl-6-(5-methyl-1H-pyrazol-4-yl)morpholine] |
| < 10 nM | < 500 nM | < 100 nM | – | – | – | C[C@@H]1CN(c2ccnc(-c3cnc4ccc(OC(F)(F)F)cn34)n2)C[C@H](c2cn[nH]c2)O1 [I-293, (2R,6 S)-2-methyl-6-(1H-pyrazol-4-yl)-4-(2-(6-(trifluoromethoxy)imidazo[1,2-a]pyridin-3-yl)pyrimidin-4-yl)morpholine] |
| < 10 nM | < 500 nM | < 100 nM | – | – | – | Cc1[nH]ncc1[C@H]1[C@@H](C)N(c2ccnc(-c3cnc4ccc(C(F)(F)F)cn34)n2)CCN1C1COC1 [I-366] |
